Molecules are shown by their SMILES.

For this assay, the target named is T1, acyl-CoA:cholesterol acyltransferase (ACAT) (Oryctolagus cuniculus, UniProt G1SFD9).
T1 construct: a tissue preparation containing rabbit intestinal microsomes; from tissue; host or cells: rabbit intestinal microsomes
T1 sequence (G1SFD9 1-524): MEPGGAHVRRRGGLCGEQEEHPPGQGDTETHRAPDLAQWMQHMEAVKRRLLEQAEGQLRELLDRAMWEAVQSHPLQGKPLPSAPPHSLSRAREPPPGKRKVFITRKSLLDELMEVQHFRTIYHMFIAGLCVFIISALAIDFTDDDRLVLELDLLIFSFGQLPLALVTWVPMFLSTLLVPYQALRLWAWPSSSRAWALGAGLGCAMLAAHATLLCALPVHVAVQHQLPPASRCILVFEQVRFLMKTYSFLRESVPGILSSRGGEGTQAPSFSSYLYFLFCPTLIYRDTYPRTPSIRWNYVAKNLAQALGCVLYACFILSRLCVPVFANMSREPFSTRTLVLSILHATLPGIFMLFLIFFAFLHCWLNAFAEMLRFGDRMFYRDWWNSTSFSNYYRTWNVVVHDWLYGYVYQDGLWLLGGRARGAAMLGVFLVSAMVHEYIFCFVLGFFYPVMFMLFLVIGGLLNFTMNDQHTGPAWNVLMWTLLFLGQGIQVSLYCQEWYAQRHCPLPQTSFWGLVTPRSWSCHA
Nature of the assay: In vitro inhibition of ACAT: radio-labeled cholesterol oleate formed from radio-labeled oleic acid in rabbit intestinal microsomes. It counts as biochemical. The procedure:
The ability of representative compounds of the present invention to inhibit ACAT was measured using an in vitro test more fully described in Field, F. J. and Salone, R. G., Biochemica et Biophysica 712: 557-570 (1982). The test assesses the ability of a test compound to inhibit the acylation of cholesterol by oleic acid by measuring the amount of radio-labeled cholesterol oleate formed from radio-labeled oleic acid in a tissue preparation containing rabbit intestinal microsomes.
The data appear in Table 1 where they are expressed as IC50 values; i.e. the concentration of test compound required to inhibit 50% […] of the enzyme.

Broadly, the IC50 is the concentration at which inhibition is half-maximal. High values mean weaker potency in that assay, low ones greater potency in that assay. Regarding `CCCCCCCC/C=C\CCCCCCCC(=O)Nc1c(OCC)ncnc1OCC` [(Z)-N-(4,6-diethoxy-5-pyrimidinyl)-9-octadecenamide], half-maximal inhibition (IC50) was put at 0.53 µM.
Under `CCCCCCCC/C=C\CCCCCCCC(=O)Nc1c(OC)ncnc1OC` [(Z)-N-(4,6-dimethoxy-5-pyrimidinyl)-9-octadecenamide] stands 0.2 µM.

For the origin of these results see patent US4722927A, “Pyrimidine amides of oleic or linoleic acid, composition containing them and their use as inhibitors of acyl-CoA cholesterol acyltransferase” (Warner-Lambert Company, priority 1986, dated 1988).
